Values quoted from earlier work in patent publication US5173304A, “Agents for the treatment of severe pain and preparation of said agents” (Dolorgiet Beteiligungs GmbH, priority 1989, dated 1992).

Settings: in vivo

## CC(C)Cc1ccc(C(C)C(=O)O)cc1 (centres unmarked) [ibuprofen]
  Analgesic effectiveness: effective analgesic
  Tolerability: well tolerated
